According to patent publication US20260109707A1, “HETEROBIFUNCTIONAL COMPOUNDS AND METHODS OF TREATING DISEASE” (Halda Therapeutics OpCo. Inc., priority 2022, published 2026):
Read-outs that look alike come from different tables or passages of the source.

Experiments:
[1] = tested on: T-Rex 293 cell line SC3 cells having increased expression of androgen receptor protein due to exposure to doxycycline; assay: Cellular growth inhibition assay, T-Rex 293 SC3 cells with doxycycline (CellTiter-Glo, 72 hours); type: cell-based; details: T-Rex 293 SC3 cells with increased androgen receptor expression due to doxycycline (10 ng/mL)
In short: (§1)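 Doxycycline (10 ng/mL) was either included or omitted to toggle wild-type androgen receptor expression in SC3 cells, a T-Rex 293 clone, grown in stripped-serum, phenol red-free medium. After 72 hours with compound, viable cells were quantified by CellTiter-Glo 2.0.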

[2] = tested on: T-Rex 293 cell line SC3 cells lacking increased expression of androgen receptor protein; assay: Cellular growth inhibition assay, T-Rex 293 SC3 cells without doxycycline (CellTiter-Glo, 72 hours); type: cell-based; details: T-Rex 293 cell line SC3 cells not exposed to doxycycline (lacking increased androgen receptor expression)
In short: as §1

VCaP cells = assay: Cellular growth inhibition assay for VCaP cells (CellTiter-Glo, 72 hours); type: cell-based, human
In short: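 Luminescent viability signal after 72 h of compound exposure gave GI50 values by four-parameter nonlinear regression. Compounds were added in 0.5% DMSO to cells plated 24 h earlier at 5000/well in DMEM containing 10% FBS.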

| SMILES | GI50 [1] [nM] | GI50 [2] [nM] | GI50 (VCaP cells) [nM] | GI50 ([1]; 72 h) [nM] | GI50 ([2]; 72 h) [nM] | GI50 (VCaP cells; Homo sapiens, VCaP, 72 h) [nM] |
| --- | --- | --- | --- | --- | --- | --- |
| Cc1sc2c(c1C)C(c1ccc(OCC3CCC4(CCCN(c5ccc(C(=O)N[C@H]6CC[C@H](Oc7ccc(C#N)c(Cl)c7)CC6)nn5)C4)C3)cc1)=N[C@@H](C)c1nnc(C)n1-2 (stereo partly drawn) [I-637] | < 500 | < 500 | < 500 | – | – | – |
| Cc1sc2c(c1C)C(c1ccc(OCC3CCC4(C3)CN(c3ccc(C(=O)N[C@H]5CC[C@H](Oc6ccc(C#N)c(Cl)c6)CC5)nn3)CCO4)cc1)=N[C@@H](C)c1nnc(C)n1-2 (stereo partly drawn) [I-638] | < 500 | < 500 | 1500 to 3000 | – | – | – |
| Cc1sc2c(c1C)C(c1ccc(OCC3CCC4(C3)CN(c3ccc(C(=O)N[C@H]5CC[C@H](Oc6ccc(C#N)c(Cl)c6)CC5)nn3)CCO4)cc1)=N[C@@H](C)c1nnc(C)n1-2 (stereo partly drawn) [I-639] | < 500 | > 3000 | > 3000 | – | – | – |
| Cc1sc2c(c1C)C(c1ccc(CC3CN(C(C)(C)C4CCN(c5ccc(C(=O)N[C@H]6CC[C@H](Oc7ccc(C#N)c(Cl)c7)CC6)nn5)CC4)C3)cc1)=N[C@@H](C)c1nnc(C)n1-2 [I-640] | – | – | – | < 500 | > 3000 | < 500 |
| Cc1sc2c(c1C)C(c1ccc(N3CCC4(CCN(c5ccc(C(=O)N[C@H]6CC[C@H](Oc7ccc(C#N)c(Cl)c7)CC6)nn5)CC4)C3)cc1)=N[C@@H](C)c1nnc(C)n1-2 [I-641] | – | – | – | < 500 | < 500 | < 500 |
| Cc1sc2c(c1C)C(c1ccc(CC3CC4(CCCN(c5ccc(C(=O)N[C@H]6CC[C@H](Oc7ccc(C#N)c(Cl)c7)CC6)nn5)C4)C3)cn1)N[C@@H](Cc1ncco1)c1nnc(C)n1-2 (stereo partly drawn) [I-642] | – | – | – | < 500 | > 3000 | > 3000 |
| Cc1sc2c(c1C)C(c1ccc(CCC3CC4(CCCN(c5ccc(C(=O)N[C@H]6CC[C@H](Oc7ccc(C#N)c(Cl)c7)CC6)nn5)C4)C3)cn1)N[C@@H](Cc1ncco1)c1nnc(C)n1-2 (stereo partly drawn) [I-643] | – | – | – | < 500 | > 3000 | < 500 |
| Cc1sc2c(c1C)C(c1ccc(CCC3CC4(CCCN(c5ccc(C(=O)N[C@H]6CC[C@H](Oc7ccc(C#N)c(Cl)c7)CC6)nn5)C4)C3)cn1)N[C@@H](Cc1ncco1)c1nnc(C)n1-2 (stereo partly drawn) [I-644] | < 500 | > 3000 | < 500 | – | – | – |
| Cc1sc2c(c1C)C(c1ccc(C#CC3CC(Cc4ccc(C(=O)N[C@H]5CC[C@H](Oc6ccc(C#N)c(Cl)c6)CC5)nn4)C3)cc1)=N[C@@H](Cc1ncco1)c1nnc(C)n1-2 (stereo partly drawn) [I-645] | – | > 3000 | – | < 500 | – | < 500 |
| Cc1sc2c(c1C)C(c1ccc(C#CC3CC(Cc4ccc(C(=O)N[C@H]5CC[C@H](Oc6ccc(C#N)c(Cl)c6)CC5)nn4)C3)cc1)=N[C@@H](Cc1ncco1)c1nnc(C)n1-2 (stereo partly drawn) [I-646] | < 500 | < 500 | < 500 | – | – | – |
| Cc1sc2c(c1C)C(c1cccc(OCCC3CCN(c4ccc(C(=O)N[C@H]5CC[C@H](Oc6ccc(C#N)c(Cl)c6)CC5)nn4)CC3)c1)=N[C@@H](C)c1nnc(C)n1-2 [I-647] | – | – | – | < 500 | > 3000 | < 500 |
| Cc1sc2c(c1C)C(c1cccc(OC3CC4(CCN(c5ccc(C(=O)N[C@H]6CC[C@H](Oc7ccc(C#N)c(Cl)c7)CC6)nn5)CC4)C3)c1)=N[C@@H](C)c1nnc(C)n1-2 [I-648] | – | – | – | < 500 | 500 to 1500 | < 500 |
| Cc1sc2c(c1C)C(c1ccccc1OC1CCN(c3ccc(C(=O)N[C@H]4CC[C@H](Oc5ccc(C#N)c(Cl)c5)CC4)nn3)CC1)=N[C@@H](C)c1nnc(C)n1-2 [I-649] | – | – | – | > 3000 | > 3000 | < 500 |
| Cc1sc2c(c1C)C(c1ccccc1OCC1CCN(c3ccc(C(=O)N[C@H]4CC[C@H](Oc5ccc(C#N)c(Cl)c5)CC4)nn3)CC1)=N[C@@H](C)c1nnc(C)n1-2 [I-650] | < 500 | > 3000 | 1500 to 3000 | – | – | – |
| Cc1sc2c(c1C)C(c1ccccc1OC1CC3(CCN(c4ccc(C(=O)N[C@H]5CC[C@H](Oc6ccc(C#N)c(Cl)c6)CC5)nn4)CC3)C1)=N[C@@H](C)c1nnc(C)n1-2 [I-651] | – | – | – | > 3000 | > 3000 | < 500 |
| CC[C@@H]1N=C(c2ccc(C3CCC4(CCCN(c5ccc(C(=O)N[C@H]6CC[C@H](Oc7ccc(C#N)c(Cl)c7)CC6)nn5)C4)CC3)cc2)c2c(sc(C)c2C)-n2c(C)nnc21 (stereo partly drawn) [I-652] | – | – | – | < 500 | > 3000 | < 500 |
| CC[C@@H]1N=C(c2ccc(C3CCC4(CCCN(c5ccc(C(=O)N[C@H]6CC[C@H](Oc7ccc(C#N)c(Cl)c7)CC6)nn5)C4)CC3)cc2)c2c(sc(C)c2C)-n2c(C)nnc21 (stereo partly drawn) [I-653] | < 500 | > 3000 | < 500 | – | – | – |
| COC[C@@H]1N=C(c2ccc(C3CCC4(CCCN(c5ccc(C(=O)N[C@H]6CC[C@H](Oc7ccc(C#N)c(Cl)c7)CC6)nn5)C4)CC3)cc2)c2c(sc(C)c2C)-n2c(C)nnc21 (stereo partly drawn) [I-654] | – | > 3000 | – | < 500 | – | < 500 |
| COC[C@@H]1N=C(c2ccc(C3CCC4(CCCN(c5ccc(C(=O)N[C@H]6CC[C@H](Oc7ccc(C#N)c(Cl)c7)CC6)nn5)C4)CC3)cc2)c2c(sc(C)c2C)-n2c(C)nnc21 (stereo partly drawn) [I-655] | < 500 | < 500 | 500 to 1500 | – | – | – |
| COCC[C@@H]1N=C(c2ccc(C3CCC4(CCCN(c5ccc(C(=O)N[C@H]6CC[C@H](Oc7ccc(C#N)c(Cl)c7)CC6)nn5)C4)CC3)cc2)c2c(sc(C)c2C)-n2c(C)nnc21 (stereo partly drawn) [I-656] | – | – | – | < 500 | > 3000 | < 500 |
| COCC[C@@H]1N=C(c2ccc(C3CCC4(CCCN(c5ccc(C(=O)N[C@H]6CC[C@H](Oc7ccc(C#N)c(Cl)c7)CC6)nn5)C4)CC3)cc2)c2c(sc(C)c2C)-n2c(C)nnc21 (stereo partly drawn) [I-657] | < 500 | > 3000 | 500 to 1500 | – | – | – |
| COC[C@@H]1N=C(c2ccc(C3CCC4(CCN(c5ccc(C(=O)N[C@H]6CC[C@H](Oc7ccc(C#N)c(Cl)c7)CC6)nn5)CC4)C3)cc2)c2c(sc(C)c2C)-n2c(C)nnc21 (stereo partly drawn) [I-658] | – | – | – | < 500 | < 500 | < 500 |
| COC[C@@H]1N=C(c2ccc(C3CCC4(CCN(c5ccc(C(=O)N[C@H]6CC[C@H](Oc7ccc(C#N)c(Cl)c7)CC6)nn5)CC4)C3)cc2)c2c(sc(C)c2C)-n2c(C)nnc21 (stereo partly drawn) [I-659] | < 500 | < 500 | < 500 | – | – | – |
| COCC[C@@H]1N=C(c2ccc(CC3CC4(CCN(c5ccc(C(=O)N[C@H]6CC[C@H](Oc7ccc(C#N)c(Cl)c7)CC6)nn5)CC4)C3)cc2)c2c(sc(C)c2C)-n2c(C)nnc21 [I-660] | – | – | – | < 500 | 500 to 1500 | < 500 |
| COCC[C@@H]1N=C(c2ccc(OC3CC4(CCCN(c5ccc(C(=O)N[C@H]6CC[C@H](Oc7ccc(C#N)c(Cl)c7)CC6)nn5)C4)C3)cc2)c2c(sc(C)c2C)-n2c(C)nnc21 (stereo partly drawn) [I-662] | – | – | – | < 500 | 500 to 1500 | < 500 |
| COCC[C@@H]1N=C(c2ccc(OC3CC4(CCCN(c5ccc(C(=O)N[C@H]6CC[C@H](Oc7ccc(C#N)c(Cl)c7)CC6)nn5)C4)C3)cc2)c2c(sc(C)c2C)-n2c(C)nnc21 (stereo partly drawn) [I-663] | < 500 | < 500 | < 500 | – | – | – |
| Cc1sc2c(c1C)C(c1ccc(N3C[C@@H]4CN(c5ccc(C(=O)N[C@H]6CC[C@H](Oc7ccc(C#N)c(Cl)c7)CC6)nn5)C[C@H]4C3)cc1)=NC1(CC1)c1nnc(C)n1-2 [I-664] | – | – | – | < 500 | < 500 | < 500 |
| Cc1sc2c(c1C)C(c1ccc(CC3CCC4(CCCN(c5ccc(C(=O)N[C@H]6CC[C@H](Oc7ccc(C#N)c(Cl)c7)CC6)nn5)C4)C3)nc1)=N[C@@H](C)c1nnc(C)n1-2 (stereo partly drawn) [I-665] | – | – | – | < 500 | > 3000 | < 500 |
| Cc1sc2c(c1C)C(c1ccc(CC3CCC4(CCCN(c5ccc(C(=O)N[C@H]6CC[C@H](Oc7ccc(C#N)c(Cl)c7)CC6)nn5)C4)C3)nc1)=N[C@@H](C)c1nnc(C)n1-2 (stereo partly drawn) [I-666] | < 500 | > 3000 | < 500 | – | – | – |
| Cc1sc2c(c1C)C(c1ccc(OCC3CCC4(C3)CN(c3ccc(C(=O)N[C@H]5CC[C@H](Oc6ccc(C#N)c(Cl)c6)CC5)nn3)CCO4)cc1)=N[C@@H](C)c1nnc(C)n1-2 (stereo partly drawn) [I-667] | – | < 500 | < 500 | < 500 | – | – |
